# Assay results from article PMC8747035, “Design, Synthesis, and Biological Evaluation of 5,6,7,8-Tetrahydrobenzo[4,5]thieno[2,3-d]pyrimidines as Microtubule Targeting Agents” (Molecules, 2022).
# Key:
# Bovine brain tubulin = experiment: Inhibition of purified tubulin assembly (turbidity); type: biochemical; settings: 10 µM tubulin, 30 °C; read-out: Inhibition of Tubulin Assembly IC50 ± SD
# Method: Bovine brain tubulin was purified as described previously. The tubulin assembly assay has been described in detail. Briefly, 1.0 mg/mL of tubulin (10 µM) was preincubated for 15 min at 30 °C in 0.8 M monosodium glutamate (pH of 2 M stock solution adjusted to 6.6 with HCl), varying compound concentrations and 4% (v/v) DMSO as compound solvent. After the preincubation, the reaction mixtures were placed on ice and 0.4 mM GTP was added. The reaction mixtures were transferred to cuvettes at 0 °C in a recording spectrophotometer equipped with an electronic temperature controller. After baselines were established, the temperature was elevated over about 30 s to 30 °C, and changes in turbidity were monitored at 350 nm for 20 min. The compound concentration that caused a 50% reduction in increase in turbidity, interpolated from the values obtained with defined compound concentrations, was defined as the IC50 value. The assay to measure inhibition of [^3H]colchicine binding was described in detail previously. Briefly, 0.1 mg/mL (1.0 µM) tubulin was incubated at 37 °C with 5.0 µM [3H]colchicine and potential inhibitors at 5.0 µM. Incubation was for 10 min, at which point the reaction had reached 40–60% of the maximum colchicine that can be bound in reaction mixtures without inhibitor. The [^3H]colchicine was a product of PerkinElmer, USA. CA-4 was a generous gift of Dr. G. R. Pettit, Arizona State University.
# HeLa WTβIII cells = experiment: SRB assay in βIII-tubulin expressing HeLa WTβIII cells; type: cell-based; settings: Homo sapiens, read-out: IC50 ± SD in HeLa WTβ3
# Method: Compounds 4–8, 10, 12, and 13 were evaluated for their abilities to overcome βIII-tubulin mediated drug resistance using an isogenic HeLa cell line pair (Table 4). […] The Rr values (Table 4) were calculated by dividing the IC50 of the βIII-tubulin expressing line by the IC50 obtained in the parental HeLa cells.
# The antiproliferative and cytotoxic effects of the compounds in cancer cells were evaluated using the SRB assay as previously described. MDA-MB-435 cells were obtained from the Lombardi Cancer Center of Georgetown University (Washington, DC, USA). SK-OV-3 and HeLa cells were purchased from ATCC. Details about the generation of the SK-OV-3 MDR1-M6/6 and HeLa WTβIII cells were described previously. The IC50 values represent an average of three independent experiments, each conducted using triplicate points.
# HeLa, A-10, SK-OV-3, and SK-OV-3 MDR1-M6/6 cells were grown in Basal Medium Eagle (Sigma-Aldrich, St. Louis, MO, USA) supplemented with 10% FBS (Hyclone, GE Life Sciences, Logan, UT, USA) 1% GlutaMAX (Gibco, Life Technologies, Waltham, MA, USA) and 50 µg/mL gentamycin (Life Technologies, USA). HeLa WTβIII cells were grown in Dulbecco’s Modified Eagle Medium (Life Technologies) supplemented with 10% FBS and 50 µg/mL gentamycin. MDA-MB-435 cells were maintained in Improved Minimum Essential Medium (Life Technologies) supplemented with 10% FBS and 25 µg/mL gentamycin. All cells were grown at 37 °C in a humidified environment with 5% CO2.
# HOP-62 = experiment: NCI-60 growth inhibition, HOP-62; type: cell-based; settings: Homo sapiens, NSCLC
# Description: (§1) Compound 4 had better potency than the lead compound 1 in 50 cancer cell lines. (better by 5 to 6-fold in leukemia, 2 to 17-fold in NSCLC, 2 to 6-fold in colon cancer, 2 to 5-fold in CNS cancer, 2 to 25-fold in melanoma, 2 to 5-fold in ovarian cancer, 2 to 9-fold in renal cancer, 2 to 5-fold in prostate cancer, and 2 to 6-fold in breast cancer compared to lead compound 1).
# HOP-92 = experiment: NCI-60 growth inhibition, HOP-92; type: cell-based; settings: Homo sapiens, NSCLC
# Description: as §1
# COLO 205 = experiment: NCI-60 growth inhibition, COLO 205; type: cell-based; settings: Homo sapiens, Colon Cancer
# Description: as §1
# HCT-15 = experiment: NCI-60 growth inhibition, HCT-15; type: cell-based; settings: Homo sapiens, Colon Cancer
# Description: as §1
# HT29 = experiment: NCI-60 growth inhibition, HT29; type: cell-based; settings: Homo sapiens, HT-29, Colon Cancer
# Description: as §1
# SF-268 = experiment: NCI-60 growth inhibition, SF-268; type: cell-based; settings: Homo sapiens, CNS Cancer
# Description: as §1
# SF-539 = experiment: NCI-60 growth inhibition, SF-539; type: cell-based; settings: Homo sapiens, CNS Cancer
# Description: as §1
# U251 = experiment: NCI-60 growth inhibition, U251; type: cell-based; settings: Homo sapiens, U-251, CNS Cancer
# Description: as §1
# DU-145 = experiment: NCI-60 growth inhibition, DU-145; type: cell-based; settings: Homo sapiens, Prostate Cancer
# Description: as §1
# LOX IMVI = experiment: NCI-60 growth inhibition, LOX IMVI; type: cell-based; settings: Homo sapiens, Melanoma
# Description: as §1
# MDA-MB-435 = experiment: NCI-60 growth inhibition, MDA-MB-435; type: cell-based; settings: Homo sapiens, Melanoma
# Description: as §1
# OVCAR-4 = experiment: NCI-60 growth inhibition, OVCAR-4; type: cell-based; settings: Homo sapiens, Ovarian Cancer
# Description: as §1
# OVCAR-5 = experiment: NCI-60 growth inhibition, OVCAR-5; type: cell-based; settings: Homo sapiens, Ovarian Cancer
# Description: as §1
# NCI/ADR-RES = experiment: NCI-60 growth inhibition, NCI/ADR-RES; type: cell-based; settings: Homo sapiens, Ovarian Cancer
# Description: as §1
# SN12C = experiment: NCI-60 growth inhibition, SN12C; type: cell-based; settings: Homo sapiens, Renal Cancer
# Description: as §1
# TK-10 = experiment: NCI-60 growth inhibition, TK-10; type: cell-based; settings: Homo sapiens, Renal Cancer
# Description: as §1
# MDA-MB-231/ATCC = experiment: NCI-60 growth inhibition, MDA-MB-231/ATCC; type: cell-based; settings: Homo sapiens, Breast Cancer
# Description: as §1
compound,measurement,setting,value
"COc1ccc(N(C)c2nc(N)nc3sc4c(c23)CCCC4)cc1 [Compound 4, N4-(4-methoxyphenyl)-N4-methyl-5,6,7,8-tetrahydrobenzo[4,5]thieno[2,3-d]pyrimidine-2,4-diamine]",IC50,Bovine brain tubulin,820 ± 40 nM
same,IC50,HeLa WTβIII cells,10.6 ± 1.8 nM
same,GI50,HOP-62,17.7 nM
same,GI50,HOP-92,14.1 nM
same,GI50,COLO 205,10.8 nM
same,GI50,HCT-15,8.85 nM
same,GI50,HT29,6.21 nM
same,GI50,SF-268,15.9 nM
same,GI50,SF-539,7.93 nM
same,GI50,U251,9.6 nM
same,GI50,DU-145,15.6 nM
same,GI50,LOX IMVI,10.1 nM
same,GI50,MDA-MB-435,4.89 nM
same,GI50,OVCAR-4,9.98 nM
same,GI50,OVCAR-5,10.8 nM
same,GI50,NCI/ADR-RES,6.19 nM
same,GI50,SN12C,14.4 nM
same,GI50,TK-10,14.2 nM
same,GI50,MDA-MB-231/ATCC,10.9 nM
